Experiments:
Assay in all cases: selective drug sensitivity score (sDSS, relative to normal bone marrow) (sDSS (score)); higher = more potent and effective on the cell line relative to normal bone marrow cells
Conditions in all cases: 72 h
PEER = test system: PEER
COG-LL-319h = test system: COG-LL-319h
DND-41 = test system: DND-41
380 = test system: 380
COG-LL-332h = test system: COG-LL-332h
HPB-ALL = test system: HPB-ALL
KASUMI-9 = test system: KASUMI-9
COG-LL-402h = test system: COG-LL-402h
TMD5 = test system: TMD5
CCRF-HSB2 = test system: CCRF-HSB2
REH = test system: REH
KASUMI-10 = test system: KASUMI-10
MHH-CALL-2 = test system: MHH-CALL-2
P12-ICHIKAWA = test system: P12-ICHIKAWA
MN-60 = test system: MN-60
697 = test system: 697
COG-LL-394h = test system: COG-LL-394h
SUP-B15 = test system: SUP-B15
NALM-16 = test system: NALM-16
MOLT-4 = test system: MOLT-4
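Also: ALL cell lines in 384-well plates, five doses spanning 10,000-fold, each plate scaled between vehicle and 100 µmol/L benzalkonium chloride controls, sDSS an adapted area-under-curve metric.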

Structure (SMILES) | selective drug sensitivity score (PEER) | selective drug sensitivity score (COG-LL-319h) | selective drug sensitivity score (DND-41) | selective drug sensitivity score 380 | selective drug sensitivity score (COG-LL-332h) | selective drug sensitivity score (HPB-ALL) | selective drug sensitivity score (KASUMI-9) | selective drug sensitivity score (COG-LL-402h) | selective drug sensitivity score (TMD5) | selective drug sensitivity score (CCRF-HSB2) | selective drug sensitivity score (REH) | selective drug sensitivity score (KASUMI-10) | selective drug sensitivity score (MHH-CALL-2) | selective drug sensitivity score (P12-ICHIKAWA) | selective drug sensitivity score (MN-60) | selective drug sensitivity score 697 | selective drug sensitivity score (COG-LL-394h) | selective drug sensitivity score (SUP-B15) | selective drug sensitivity score (NALM-16) | selective drug sensitivity score (MOLT-4)
Cc1ccc(C(=O)Nc2cccc(C(F)(F)F)c2)cc1Nc1nc(-c2cccnc2)nc2c1cnn2C [NVP-BHG712] (top concentration 10000 nM) | 8.18 | 3.68 | 5.38 | 1.28 | 5.98 | 0.18 | 5.18 | -2.32 | 7.28 | 10.3 | 6.18 | 3.38 | 5.28 | 3.08 | 0.68 | 3.78 | -2.32 | 7.98 | -2.32 | 3.08
Cn1c(Nc2ccc(C(F)(F)F)cc2)nc2cc(Oc3ccnc(-c4ncc(C(F)(F)F)[nH]4)c3)ccc21 [NVP-RAF265] (top concentration 1000 nM) | 9.78 | 5.08 | 3.58 | 2.68 | 3.28 | 0.08 | 4.48 | 5.98 | 6.28 | 5.98 | 2.18 | 6.08 | 12 | 2.58 | -0.22 | 9.68 | 5.98 | 7.78 | 6.18 | 3.48
CC1(C)CC[C@]2(NC(=O)C(C)(F)F)CC[C@]3(C)[C@H](C(=O)C=C4[C@@]5(C)C=C(C#N)C(=O)C(C)(C)[C@@H]5CC[C@]43C)[C@@H]2C1 [Omaveloxolone] (top concentration 10000 nM) | 4.38 | 10.5 | 3.98 | 10.9 | 3.48 | 3.58 | 1.88 | 3.38 | 1.48 | 3.78 | 2.58 | 2.58 | 0.58 | 1.88 | 1.08 | 4.78 | 0.48 | 8.38 | 4.58 | 2.18
CC(C)c1cc(C(=O)N2Cc3ccc(CN4CCN(C)CC4)cc3C2)c(O)cc1O [Onalespib] (top concentration 2500 nM) | 0.52 | 7.92 | 4.62 | 6.52 | 7.62 | 4.62 | -2.18 | 7.22 | -3.28 | 7.32 | -0.08 | 3.92 | -1.28 | 2.22 | -0.48 | 2.82 | -2.38 | 3.92 | 1.82 | 5.92
COC[C@H](NC(=O)c1cnc(C)s1)C(=O)N[C@@H](COC)C(=O)N[C@@H](Cc1ccccc1)C(=O)[C@@]1(C)CO1 [Oprozomib] (top concentration 2500 nM) | 12.5 | 3.5 | 11.1 | 0.3 | 10.6 | -0.5 | 3.2 | 2.2 | -1.6 | 14.2 | -0.4 | 3.7 | 0.4 | 2.1 | -4.3 | 0.2 | 1.2 | 14 | 1.9 | 12.6
COc1ccccc1S(=O)(=O)Nc1ccc2c(c1)CN(C)C(=O)N2 [PFI-1] (top concentration 30000 nM) | 2.4 | 16.2 | 2.3 | 0.1 | -0.5 | 1 | 6 | 3.1 | -4.5 | 1 | -0.6 | 3.5 | 3.5 | 0.8 | 2.9 | 3.7 | 0.3 | 8.5 | -1 | -0.9
NS(=O)(=O)OC[C@@H]1C[C@@H](n2ccc3c(N[C@H]4CCc5ccccc54)ncnc32)C[C@@H]1O [Pevonedistat] (top concentration 10000 nM) | 19.7 | 12.2 | 10.1 | 8.5 | 20.2 | 5.7 | 6.2 | 8.5 | 6.7 | 16.3 | 10.3 | 19.1 | 10 | 16.7 | 6.5 | 13.1 | 2.7 | 15.2 | 4.1 | 14
CCCCc1nc2cc(/C=C/C(=O)NO)ccc2n1CCN(CC)CC [Pracinostat] (top concentration 10000 nM) | 3.98 | 10.1 | 3.48 | 13.2 | 0.58 | 6.88 | 8.18 | 13 | 5.78 | 5.88 | 0.38 | 6.18 | 8.98 | 5.08 | -1.42 | 7.68 | 0.18 | 5.98 | 0.98 | 3.48
COc1cccc(OCCCN)c1-c1cc(Nc2cnc(C#N)cn2)n[nH]1 [Prexasertib] (top concentration 10000 nM) | 17.9 | 19.4 | 19.6 | 15.7 | 20.7 | 14.6 | 20.4 | 14.8 | 8.94 | 18.6 | 17 | 16.1 | 20.1 | 19 | 4.24 | 18.4 | -0.96 | 20.9 | 13.8 | 20.4
Cc1cn(-c2cc(NC(=O)c3ccc(C)c(Nc4nccc(-c5cnccn5)n4)c3)cc(C(F)(F)F)c2)cn1 [Radotinib] (top concentration 10000 nM) | 19.3 | 13.2 | 13.8 | 1.8 | 19.6 | 6.4 | 9.2 | 0 | 22 | 8.2 | 0 | 0 | 10.1 | 0.7 | 0.4 | 5.7 | 1.8 | 36.2 | 0 | 1.2
Cn1nccc1Nc1nccc(-c2ccn([C@H](CO)c3ccc(Cl)c(F)c3)c(=O)c2)n1 [Ravoxertinib] (top concentration 10000 nM) | -0.3 | 10.2 | 4.5 | 4.9 | 4.1 | -0.4 | 5.3 | 3.4 | 3.2 | -1.2 | 1.2 | 5.2 | 8.4 | 2.1 | -3.2 | 1.5 | -0.2 | 12.6 | -1.6 | -1.2
C/C=C1\NC(=O)[C@H]2CSSCC/C=C/[C@H](CC(=O)N[C@H](C(C)C)C(=O)N2)OC(=O)[C@H](C(C)C)NC1=O [Romidepsin] (top concentration 1000 nM) | 2.06 | 1.16 | 4.76 | 8.56 | 1.36 | 3.66 | 3.16 | 8.76 | 3.46 | 1.46 | 1.26 | 1.86 | 6.76 | 1.66 | -4.94 | 3.16 | -0.94 | 4.16 | 0.76 | 1.76
CNCc1ccc(-c2[nH]c3cc(F)cc4c3c2CCNC4=O)cc1 [Rucaparib] (top concentration 10000 nM) | -0.08 | 6.32 | -0.38 | 11.5 | 1.52 | -0.58 | 2.72 | 2.42 | -0.38 | 1.22 | 1.52 | 1.12 | 9.02 | -0.58 | -0.58 | 6.42 | 0.92 | 5.42 | -0.58 | -0.58
CC(C)(C)c1cnc(CSc2cnc(NC(=O)C3CCNCC3)s2)o1 [SNS-032] (top concentration 10000 nM) | -4.94 | -2.24 | -2.44 | -6.64 | -3.54 | -4.74 | -0.54 | 3.06 | -4.54 | -2.24 | -5.44 | -2.64 | 2.96 | -5.04 | -8.64 | -2.64 | -2.04 | -3.14 | -6.04 | -4.84
Cc1c(C(=O)Nc2ccc(N3C[C@@H](C)O[C@@H](C)C3)nc2)cccc1-c1ccc(OC(F)(F)F)cc1 [Sonidegib] (top concentration 10000 nM) | 0.88 | 4.98 | 5.08 | -3.92 | -1.42 | 3.08 | 1.48 | -3.92 | -3.92 | -1.42 | 0.98 | 1.38 | 7.48 | 0.38 | -1.42 | 1.28 | -0.02 | 1.68 | -3.92 | 1.08
CNC(=O)c1cc(Oc2ccc(NC(=O)Nc3ccc(Cl)c(C(F)(F)F)c3)cc2)ccn1 [Sorafenib] (top concentration 1000 nM) | 0.1 | 0 | 0 | 0 | 0.1 | 0.1 | 0 | 0 | 0 | 0 | 0.2 | 12.2 | 0.3 | 0 | 0 | 1.7 | 0 | 0 | 0 | 0
CN1CCN(c2nc(C3=C(c4c[nH]c5ccccc45)C(=O)NC3=O)c3ccccc3n2)CC1 [Sotrastaurin] (top concentration 10000 nM) | 4 | 4.7 | 0.3 | 4.5 | 2 | 2.6 | 0.5 | 5.2 | 2.9 | 3.5 | 4.8 | 7.7 | 9.9 | -1.3 | -2.3 | 8 | 0.2 | 2.2 | 1.8 | -1.7
Cc1cc(C(C)Nc2ccccc2)c2nc(N3CCOCC3)cc(=O)n2c1 (stereo not given) [TGX-221] (top concentration 10000 nM) | -0.74 | -1.64 | -1.64 | -1.64 | -1.54 | -1.64 | 1.16 | 1.76 | -1.64 | 2.36 | -0.84 | -1.64 | 5.16 | -1.64 | -1.64 | 0.16 | -1.24 | 0.36 | -1.64 | 0.66

From the supplement of paper PMC8967900
